# Results taken from patent publication US20130252988A1, “COMPOSITIONS AND METHODS FOR TREATING MYELOFIBROSIS” (TARGEGEN, INC., priority 2010, published 2013).
# Structures can show the parent of a compound that is named as a salt. Where two headings read alike, the source gives them in different places.
# System: subjects with myelofibrosis
# Conditions: for Discontinuation because of adverse event, number of subjects / Discontinued, subjects n (%): Table 1
# [1] = Example 1, patients who started at =680 mg
# [2] = Example 1, started at =680 mg, 24 patients not requiring RBC transfusions at baseline
# [3] = MTD cohort, at least possibly related
# [4] = Table 3: treatment-emergent hematologic toxicity, MTD subjects (N = 40)
# [5] = Table 4: treatment-emergent non-hematologic AE, MTD subjects (N = 40)
# [6] = Table 5: treatment-emergent non-hematologic laboratory finding, MTD subjects (N = 40)
structure (smiles),measurement,setting,value
"Cc1cnc(Nc2ccc(OCCN3CCCC3)cc2)nc1Nc1cccc(S(=O)(=O)NC(C)(C)C)c1 [TG101348, N-tert-butyl-3-[(5-methyl-2-{[4-(2-pyrrolidin-1-ylethoxy)phenyl]amino}pyrimidin-4-yl)amino]benzenesulfonamide dihydrochloride monohydrate]",Patients who experienced DLT,800 mg/day,2 of 6
same,Subjects who discontinued treatment during the extension study,Eight of 43 subjects,19%
same,Patients who discontinued treatment,"Example 1, 18 of 59 patients, median follow-up 12 weeks",31%
same,"Asymptomatic hyperlipasemia, patients",[1],33%
same,"Gr1/2 serum creatinine elevation, patients",[1],38%
same,"Gr3 diarrhea, number of patients",[1],3
same,"Gr3 nausea, number of patients",[1],1
same,"Gr3 neutropenia, patients",[1],15%
same,"Gr3 thrombocytopenia, patients",[1],20%
same,"Gr3 vomiting, number of patients",[1],1
same,"Gr4 neutropenia, patients",[1],0%
same,"Gr4 thrombocytopenia, patients",[1],10%
same,"Grade 1/2 transaminitis, patients",[1],38%
same,"Grade 3 anemia, patients",[2],42%
same,"Grade 4 anemia, patients",[2],8%
same,"Grade 3/4 neutropenia, patients",Example 1 background,14%
same,"Grade 3/4 thrombocytopenia, patients",Example 1 background,25%
same,Long-term toxicities,Example 2 conclusions,no long-term toxicities
same,Subjects who discontinued treatment during the first 6 cycles,Fifteen of 59 subjects,25%
same,Reason for discontinuation of study,"MF-TG101348-001, subject 101-040, starting 680, termination 520 mg/day, 24 days, possibly related",Adverse events - diarrhea (grade 3; possibly
same,Reason for discontinuation of study,"MF-TG101348-001, subject 102-019, starting dose 520, dose at termination 520 mg/day, 42 days of treatment, probably related",Adverse event - neutropenia (grade 3;
same,Reason for discontinuation of study,"MF-TG101348-001, subject 104-027, starting 800, termination 680 mg/day, 77 days, possibly related",Adverse event - thrombocytopenia (grade 4;
same,Reason for discontinuation of study,"MF-TG101348-001, subject 104-029, starting 680, termination 680 mg/day, 44 days, not related, also embolic stroke (grade 3; not related)",Adverse event - endocarditis (grade 3; not
same,Reason for discontinuation of study,"MF-TG101348-001, subject 105-059, starting 680, termination 360 mg/day, 27 days, possibly related",Adverse event - cardiac arrest (grade 5;
same,Reason for discontinuation of study,"MF-TG101348-001, subject 106-028, starting 800, termination 520 mg/day, 44 days, possibly related",Adverse event - thrombocytopenia (grade 4;
same,Subjects with serious adverse events considered at least possibly related to TG101348,MF-TG101348-001 and -002,8 subjects
same,Reason for discontinuation of study,"MF-TG101348-002, subject 101-047, starting 680, termination 320 mg/day, cumulative 233 days, possibly related",Adverse event - elevated creatinine (grade 2;
same,Reason for discontinuation of study,"MF-TG101348-002, subject 104-015, starting 360, termination 520 mg/day, cumulative 257 days, possibly related",Adverse event - depression (grade 3;
same,Reason for discontinuation of study,"MF-TG101348-002, subject 104-017, starting 520, termination 200 mg/day, cumulative 309 days",Investigator discretion - disease progression
same,Reason for discontinuation of study,"MF-TG101348-002, subject 105-013, starting 240, termination 360 mg/day, cumulative 321 days, probably related",Adverse event - thrombocytopenia (grade 4;
same,"Grades 3/4 asymptomatic increase in ALT, subjects",MTD cohort,8%
same,"Grades 3/4 asymptomatic increase in AST, subjects",MTD cohort,3%
same,"Grades 3/4 asymptomatic increase in serum lipase, subjects",MTD cohort,15%
same,"Grades 3/4 increase in alkaline phosphatase, subjects",MTD cohort,0%
same,"Grades 3/4 increase in creatinine, subjects",MTD cohort,0%
same,Subjects who required dose-reduction during the first 6 cycles,"MTD cohort (n=40), 28 subjects",70%
same,"Grade 3 diarrhea, subjects",[3],13%
same,"Grade 3 nausea, subjects",[3],5%
same,"Grade 3 vomiting, subjects",[3],3%
same,"Dose-reduction, primary reason ALT elevation","MTD cohort, first 6 cycles",7.5%
same,"Dose-reduction, primary reason amylase/lipase elevation","MTD cohort, first 6 cycles",10%
same,"Dose-reduction, primary reason cytopenia(s)","MTD cohort, first 6 cycles",20%
same,"Dose-reduction, primary reason gastrointestinal adverse events","MTD cohort, first 6 cycles",12.5%
same,"Dose-reduction, primary reason investigator discretion","MTD cohort, first 6 cycles",7.5%
same,"Dose-reduction, primary reason other adverse events","MTD cohort, first 6 cycles",12.5%
same,Maximum tolerated dose (MTD),"Phase I study, myelofibrosis",680 mg
same,"Discontinuation because of adverse event, number of subjects",MTD (40 enrolled),5
same,"Discontinued, subjects n (%)",MTD (initiated at 680 or 800 mg/day; 40 enrolled),11 (28%)
same,"Discontinuation because of adverse event, number of subjects",Overall (59 enrolled),6
same,"Discontinued, subjects n (%)",Overall (59 enrolled),15 (25%)
same,"Anemia: New Transfusion Requirement on Study, subjects n (%)","Table 3: MTD subjects not transfusion dependent at baseline (N = 24), transfusion on at least 2 occasions for Hb <10 g/dL",16 (67%)
same,"Neutropenia Grade 3, subjects n (%)",[4],6 (15%)
same,"Neutropenia Grade 4, subjects n (%)",[4],0
same,"Thrombocytopenia Grade 3, subjects n (%)",[4],8 (20%)
same,"Thrombocytopenia Grade 4, subjects n (%)",[4],5 (13%)
same,"Abdominal pain Grade 1, subjects n (%)",[5],5 (13%)
same,"Abdominal pain Grade 2, subjects n (%)",[5],0
same,"Abdominal pain Grade 3, subjects n (%)",[5],0
same,"Abdominal pain Grade 4, subjects n (%)",[5],0
same,"Anorexia Grade 1, subjects n (%)",[5],7 (18%)
same,"Anorexia Grade 2, subjects n (%)",[5],0
same,"Anorexia Grade 3, subjects n (%)",[5],1 (3%)
same,"Anorexia Grade 4, subjects n (%)",[5],0
same,"Constipation Grade 1, subjects n (%)",[5],6 (15%)
same,"Constipation Grade 2, subjects n (%)",[5],1 (3%)
same,"Constipation Grade 3, subjects n (%)",[5],0
same,"Constipation Grade 4, subjects n (%)",[5],0
same,"Contusion Grade 1, subjects n (%)",[5],5 (13%)
same,"Contusion Grade 2, subjects n (%)",[5],0
same,"Contusion Grade 3, subjects n (%)",[5],0
same,"Contusion Grade 4, subjects n (%)",[5],0
same,"Diarrhea Grade 1, subjects n (%)",[5],21 (53%)
same,"Diarrhea Grade 2, subjects n (%)",[5],4 (10%)
same,"Diarrhea Grade 3, subjects n (%)",[5],5 (13%)
same,"Diarrhea Grade 4, subjects n (%)",[5],0
same,"Edema peripheral Grade 1, subjects n (%)",[5],7 (18%)
same,"Edema peripheral Grade 2, subjects n (%)",[5],1 (3%)
same,"Edema peripheral Grade 3, subjects n (%)",[5],0
same,"Edema peripheral Grade 4, subjects n (%)",[5],0
same,"Fatigue Grade 1, subjects n (%)",[5],2 (5%)
same,"Fatigue Grade 2, subjects n (%)",[5],3 (8%)
same,"Fatigue Grade 3, subjects n (%)",[5],1 (3%)
same,"Fatigue Grade 4, subjects n (%)",[5],0
same,"Headache Grade 1, subjects n (%)",[5],4 (10%)
same,"Headache Grade 2, subjects n (%)",[5],1 (3%)
same,"Headache Grade 3, subjects n (%)",[5],0
same,"Headache Grade 4, subjects n (%)",[5],0
same,"Nausea Grade 1, subjects n (%)",[5],20 (50%)
same,"Nausea Grade 2, subjects n (%)",[5],6 (15%)
same,"Nausea Grade 3, subjects n (%)",[5],2 (5%)
same,"Nausea Grade 4, subjects n (%)",[5],0
same,"Proteinuria Grade 1, subjects n (%)",[5],2 (5%)
same,"Proteinuria Grade 2, subjects n (%)",[5],3 (8%)
same,"Proteinuria Grade 3, subjects n (%)",[5],0
same,"Proteinuria Grade 4, subjects n (%)",[5],0
same,"Vomiting Grade 1, subjects n (%)",[5],20 (50%)
same,"Vomiting Grade 2, subjects n (%)",[5],7 (18%)
same,"Vomiting Grade 3, subjects n (%)",[5],1 (3%)
same,"Vomiting Grade 4, subjects n (%)",[5],0
same,"ALT increased Grade 2, subjects n (%)",[6],8 (20%)
same,"ALT increased Grade 3, subjects n (%)",[6],2 (5%)
same,"ALT increased Grade 4, subjects n (%)",[6],0
same,"AST increased Grade 2, subjects n (%)",[6],5 (13%)
same,"AST increased Grade 3, subjects n (%)",[6],1 (3%)
same,"AST increased Grade 4, subjects n (%)",[6],0
same,"Creatinine increased Grade 2, subjects n (%)",[6],11 (28%)
same,"Creatinine increased Grade 3, subjects n (%)",[6],0
same,"Creatinine increased Grade 4, subjects n (%)",[6],0
same,"Hyperamylasemia Grade 2, subjects n (%)",[6],0
same,"Hyperamylasemia Grade 3, subjects n (%)",[6],1 (3%)
same,"Hyperamylasemia Grade 4, subjects n (%)",[6],1 (3%)
same,"Hyperkalemia Grade 2, subjects n (%)",[6],3 (8%)
same,"Hyperkalemia Grade 3, subjects n (%)",[6],2 (5%)
